Results reported in patent publication US20110160238A1, “OCTAHYDROQUINOLIZINES FOR ANTIDIABETIC TREATMENT” (55PHARMA DRUG DISCOVERY & DEVELOPMENT AG, priority 2008, published 2011).

Test system: Male C57BL/6 mice
Experiment: oral glucose tolerance test in mice
Format: in vivo
Details: oral glucose 3 g/kg at 0 min, versus vehicle
Experimental: All animal experiments described below and listed in Table 1 were performed in accordance to Austrian law and the principles of good laboratory animal care. Data shown in Table 1 are obtained using commercially available male mice purchased, e.g. from the breeding facilities of Charles River Lab. (USA). Male C57BL/6 mice were used at the age of 7-30 weeks and had free access to a standard laboratory chow diet (kg/kg: <10% crude fat) and water except for defined fasting periods before experimentation. They were maintained at room temperature and a 12 h/12 h light-dark cycle.
The antidiabetic activities of the products listed in Table 1 were evaluated in oral glucose tolerance tests in mice, in analogy to the procedure known to the general physician. Mice were fasted for 8-12 hours prior to oral glucose tolerance testing. For biological testing, the products listed in Table 1 were dissolved or suspended in 0.5% carboxymethylcellulose containing 1-2% acetic acid. A control group receiving no test product was examined in parallel in each test run. The control group received the same amount of a 0.5% carboxymethylcellulose solution containing 1-2% acetic acid (vehicle). Administration of products listed in Table 1 or vehicle at T=−45 min was followed after 45 min by oral administration via gavage of a glucose solution (3 g/kg) at T=0 min. Blood was collected via puncture of the tip of the tail immediately before administration of products listed in Table 1 or vehicle, immediately before administration of glucose, and at T=30 min and/or T=90 and/or T=150 as the case may be. Blood glucose was determined using portable glucometers as commonly used in human diabetes.
The increment in blood glucose at T=min over levels measured at T=0 min was calculated for each animal. Mean values of the increment for treatment group and vehicle group were compared (typical group size n=6-10 mice). Percent reduction induced by products listed in Table 1 versus vehicle was the readout parameter for glucose-lowering activity. As listed in Table 1, an effect of 1 means a reduction of more than 15% of incremental blood glucose at the given time point T=min versus vehicle group.
Antidiabetic effects of products are listed in Table 1 as evaluated in a glucose tolerance test in mice.

[1] = product dose 45 mg/kg per os at -45 min, glucose measurement at 30 min
[2] = product dose 90 mg/kg per os at -45 min, glucose measurement at 30 min

Row | Structure (SMILES) | Antidiabetic activity [1] | Antidiabetic activity [2] | other results
1 | CC1(c2ccc(F)cc2)CCC2(C)CC3(CCCO3)CCN2C1 (stereo not shown) [Product 5b, 7′-(4-fluorophenyl)-7′,9a′-dimethyldecahydro-3H-spiro[furan-2,2′-quinolizine]] | 1 (an effect of 1 means a reduction of more than 15% of incremental blood glucose at the given time point T=min versus vehicle group) | – | –
2 | CC1(c2ccccc2)CCC2(C)CC(=O)CCN2C1 (stereo not shown) [Product 3a, 7,9a-dimethyl-7-phenyloctahydro-2H-quinolizin-2-one] | – | 1 (an effect of 1 means a reduction of more than 15% of incremental blood glucose at the given time point T=min versus vehicle group) | –
3 | CC1(c2ccc(F)cc2)CCC2(C)CC(=O)CCN2C1 (stereo not shown) [Product 3b, 7-(4-fluorophenyl)-7,9a-dimethyloctahydro-2H-quinolizin-2-one] | – | 1 (an effect of 1 means a reduction of more than 15% of incremental blood glucose at the given time point T=min versus vehicle group) | –
4 | CC1(c2ccccc2)CCC2(C)CC3(CCCO3)CCN2C1 (stereo not shown) [Product 5a, 7′,9a′-dimethyl-7′-phenyldecahydro-3H-spiro[furan-2,2′-quinolizine]] | – | – | Antidiabetic activity (product dose 22.5 mg/kg per os at -45 min, glucose measurement at 30 min): 1 (an effect of 1 means a reduction of more than 15% of incremental blood glucose at the given time point T=min versus vehicle group); Antidiabetic activity (product dose 90 mg/kg per os at -45 min, glucose measurement at 90 min): 1 (an effect of 1 means a reduction of more than 15% of incremental blood glucose at the given time point T=min versus vehicle group); Antidiabetic activity (product dose 90 mg/kg per os at -45 min, glucose measurement at 150 min): 1 (an effect of 1 means a reduction of more than 15% of incremental blood glucose at the given time point T=min versus vehicle group)
5 | CC1(c2ccc(F)cc2)CCC2(C)CC3(CCC(=O)O3)CCN2C1 (stereo not shown) [Product 6b, 7′-(4-fluorophenyl)-7′,9a′-dimethyldecahydro-5H-spiro[furan-2,2′-quinolizine]-5-one] | 1 (an effect of 1 means a reduction of more than 15% of incremental blood glucose at the given time point T=min versus vehicle group) | – | –
